What was measured:
rat croton oil ear edema = assay: Local antiinflammatory effect in rat croton oil ear edema following epicutaneous application; assay type: in vivo; settings: for Inhibition in % / x ± s (mg), weight difference of treated and untreated ear disks: 4 h; for x ± s (mg), weight difference of treated and untreated ear disks: TPA irritant, control 21.2 ± 5.1; for local antiinflammatory effect: summary in words
Experimental: 1. Local antiinflammatory effect in rat croton oil ear edema following epicutaneous application […] The left ear remained untreated. […] The corticoids under examination were dissolved in this solution in the given final concentrations. Controls only received the TPA/solvent mixture. The animals were sacrificed using CO2 4 h after the epicutaneous treatment. Disks measuring 8 mm in diameter were punched out of the right (treated) and the left (untreated) ears and weighed immediately.

Carrageenan paw edema = assay: Systemic antiinflammatory effect following subcutaneous administration: Carrageenan paw edema in rats; assay type: in vivo, rat; settings: for Increase in volume: 6 hours after carrageenan, control 0.58 ± 0.16; for systemic activity: summary in words
Source text: 2 a) Examining for systemic antiinflammatory effect in the “antiinflammatory effect following subcutaneous administration: Carrageenan paw edema in rats” test. The carrageenan paw edema test in rats in accordance with the method described by Winter et al., Proc. Soc. exp. Biol. (New York) 111, 544 (1962) was chosen as the test for the acute systemic antiinflammatory effect. […] Controls were only given sesame oil. The paw volumes are given in ml, x±s.

gluconeogenesis = assay: Systemic effect: gluconeogenesis in adrenalectomized rats; settings: for Glycogen + glucose mg/100 g of liver: 6 hours, control 11.2 ± 1.7; for effect on new formation of glucose and glycogen: t test against control
Experimental: 2 b) Examining for systemic effect: gluconeogenesis in rats
A sensitive method for detecting systemic effects on carbohydrate metabolism is to examine the gluconeogenic effect of corticosteroids in the adrenalectomized rat.
Three days prior to the experiment, groups of in each case 6 rats are adrenalectomized under pentobarbital anesthesia and provided with 0.9% sodium chloride solution as drinking fluid. Two days later, i.e. 24 hours before initiating the experiment, the feed is removed in order to reduce the glycogen stores in the liver.
On the day of the experiment, the preparations under examination are administered subcutaneously, dissolved in sesame oil (2 ml/kg). Six hours later, the animals are decapitated, and in each case the liver is removed and 1 g thereof is taken up in 5 ml of 0.6 molar perchloric acid. After homogenization, the free glucose is measured in the supernatant from the centrifugation, while the centrifugation sediment (centrifugate; glycogen) is cleaved enzymically with amyloglucosidase, after which the glucose content is also measured in this fraction (Hexokinase method, Boehringer Mannheim).

SMILES | Inhibition in % (rat croton oil ear edema; 0.1 mg/ml epicutaneous) | x ± s (mg), weight difference of treated and untreated ear disks (rat croton oil ear edema; 0.1 mg/ml epicutaneous) | Inhibition in % (rat croton oil ear edema; 0.3 mg/ml epicutaneous) | x ± s (mg), weight difference of treated and untreated ear disks (rat croton oil ear edema; 0.3 mg/ml epicutaneous) | Increase in volume (Carrageenan paw edema; 0.3 mg/kg s.c.) | Increase in volume (Carrageenan paw edema; 3.0 mg/kg s.c.) | Glycogen + glucose mg/100 g of liver (gluconeogenesis; 0.3 mg/kg s.c.) | effect on new formation of glucose and glycogen (gluconeogenesis; 0.3 mg/kg s.c.) | Glycogen + glucose mg/100 g of liver (gluconeogenesis; 3.0 mg/kg s.c.) | Inhibition in % (rat croton oil ear edema; 1.0 mg/ml epicutaneous) | x ± s (mg), weight difference of treated and untreated ear disks (rat croton oil ear edema; 1.0 mg/ml epicutaneous) | local antiinflammatory effect (rat croton oil ear edema) | systemic activity (Carrageenan paw edema)
CCOC(=O)O[C@]1(C(=O)COC(=O)CC)CC[C@H]2[C@@H]3CCC4=CC(=O)C=C[C@]4(C)[C@H]3[C@@H](O)C[C@@]21C [Prednicarbate, prednisolone 17-ethyl carbonate 21-propionate, reference compound] | 75% | 5.2 ± 3.3 mg | 88% | 2.6 ± 2.4 mg | 0.36 ± 0.13 mL | 0.09 ± 0.08 mL |  |  |  |  |  |  | 
C[C@]12C=CC(=O)C=C1CC[C@@H]1[C@@H]2[C@@H](O)C[C@@]2(C)[C@H]1CC[C@]2(OC(=O)c1ccccc1)C(=O)COC(=O)Cc1ccccc1 [Compound I, prednisolone 17-benzoate 21-phenylacetic ester] | 76% | 5.0 ± 3.1 mg | 85% | 3.1 ± 2.5 mg | 0.46 ± 0.19 mL | 0.38 ± 0.15 mL | 20.4 ± 11.7 n.s. mg/100 g of liver | still do not have any significant effect | 96.0 ± 26.2 mg/100 g of liver | 91% | 2.0 ± 1.4 mg | strong | weak
C[C@H]1C[C@H]2[C@@H]3CCC4=CC(=O)C=C[C@]4(C)[C@@]3(F)[C@@H](O)C[C@]2(C)[C@@]1(OC(=O)c1ccccc1)C(=O)COC(=O)Cc1ccccc1 [Compound II, betamethasone 17-benzoate 21-phenylacetic ester] | 67% | 7.0 ± 3.3 mg | 77% | 4.9 ± 3.3 mg | 0.56 ± 0.09 mL | 0.45 ± 0.14 mL | 10.8 ± 1.3 n.s. mg/100 g of liver | still do not have any significant effect | 81.2 ± 61.7 mg/100 g of liver | 95% | 1.1 ± 0.9 mg | strong | weak

Source: patent publication US6835724B2, “Corticoid 17,21-dicarboxylic esters and corticosteroid 17-carboxylic ester 21-carbonic esters, processes for their preparation and pharmaceuticals containing these compounds” (Aventis Pharma Deutschland GmbH, priority 1993, dated 2004)
